Columns and labels:
Type in all cases: in vivo
[1] = tested on: Green Peach Aphid (Myzus persicae, MYZUPE) ("GPA"); assay: Bioassays on Green Peach Aphid (GPA), cabbage seedling foliar spray; conditions: 72 h, 200 ppm foliar spray on cabbage seedlings, three days, Abbott corrected % control, read-out: GPA % Control (or Mortality) rating
Experimental: Certain molecules disclosed in this document were tested against GPA using procedures described in the following example. In the reporting of the results, the “GPA Rating Table” was used (See Table Section).
Cabbage seedlings grown in 3-inch pots, with 2-3 small (3-5 cm) true leaves, were used as test substrate. The seedlings were infested with 20-50 GPA (wingless adult and nymph stages) one day prior to chemical application. Four pots with individual seedlings were used for each treatment. Test compounds (2 mg) were dissolved in 2 mL of acetone/methanol (1:1) solvent, forming stock solutions of 1000 ppm test compound. The stock solutions were diluted 5× with 0.025% Tween 20 in water to obtain the solution at 200 ppm test compound. A hand-held aspirator-type sprayer was used for spraying a solution to both sides of […] leaves until runoff. Reference plants (solvent check) were sprayed with the diluent only containing 20% by volume of acetone/methanol (1:1) solvent. Treated plants were held in a holding room for three days at approximately 25° C. and ambient relative humidity (RH) prior to grading. Evaluation was conducted by counting the number of live aphids per plant under a microscope. Percent Control was measured by using Abbott's correction formula (W. S. Abbott, “A Method of Computing the Effectiveness of an Insecticide” J. Econ. Entomol. 18 (1925), pp. 265-267) as follows. Corrected % Control=100*(X−Y)/X • where • X=No. of live aphids on solvent check plants and • Y=No. of live aphids on treated plants

[2] = tested on: Yellow Fever Mosquito (Aedes aegypti, AEDSAE) ("YFM"); conditions: about 1 day-old larvae, 4000 ppm master solution diluted, 3 days, room temperature
Procedure, shortened: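 Compounds from 4000 ppm DMSO master plates, diluted in 90:10 water:acetone, dispensed into 96-well plates, six replicates. About 1-day-old larvae added in liver-powder water. Wells covered, held 3 days at room temperature, then scored for mortality.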

[3] = tested on: Beet Armyworm (Spodoptera exigua, LAPHEG) ("BAW"); assay: Bioassays on Beet Armyworm (BAW), 128-well diet tray assay; conditions: Spodoptera exigua, 168 h; second instar BAW larvae, 50 μg/cm^2 on artificial diet, five to seven days, 25° C.; read-out: BAW % Control (or Mortality) rating
Procedure, shortened: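 Second-instar larvae, one to five per well, were placed on artificial diet surface-treated with 50 μg/cm^2 compound in 90:10 acetone-water and dried, eight wells per compound. Trays were held at 25° C, 14:10 light-dark, for five to seven days. Percent mortality per well was averaged over the eight wells.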

[4] = tested on: Cabbage Looper (Trichoplusia ni, TRIPNI) ("CL"); assay: Bioassays on Cabbage Looper (CL), 128-well diet tray assay; conditions: Trichoplusia ni, 168 h, read-out: CL % Control (or Mortality) rating
Procedure, shortened: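 Second instar larvae (one to five per well) placed on artificial diet treated with 50 μg/cm^2 compound in acetone-water, eight wells per compound. Held at 25° C, 14:10 light-dark for five to seven days; percent mortality averaged across wells.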

Compound	mortality at 200 ppm [1]	YFM % Control (or Mortality) rating [2]	mortality at 50 µg/cm2 [3]	mortality at 50 µg/cm2 [4]
O=C(Nc1ccc(-c2ncn(-c3ccc(OC(F)(F)F)cc3)n2)cc1)c1cccc(-c2ccccc2)c1 [F24, N-(4-(1-(4-(trifluoromethoxy)phenyl)-1H-1,2,4-triazol-3-yl)phenyl)-[1,1′-biphenyl]-3-carboxamide]	0 to 80%	D (No activity noticed in this bioassay)	50 to 100%	50 to 100%
CCc1ccccc1-c1cccc(C(=O)Nc2ccc(-c3ncn(-c4ccc(OC(F)(F)F)cc4)n3)cc2)c1 [F8, 2′-Ethyl-N-(4-(1-(4-(trifluoromethoxy)phenyl)-1H-1,2,4-triazol-3-yl)phenyl)-[1,1′-biphenyl]-3-carboxamide]	0 to 80%	B (More than 0-Less than 80)	50 to 100%	50 to 100%
Cc1cccc(C)c1-c1cccc(C(=O)Nc2ccc(-c3ncn(-c4ccc(OC(F)(F)F)cc4)n3)cc2)c1 [F12, 2′,6′-Dimethyl-N-(4-(1-(4-(trifluoromethoxy)phenyl)-1H-1,2,4-triazol-3-yl)phenyl)-[1,1′-biphenyl]-3-carboxamide]	0 to 80%	A (80-100)	50 to 100%	50 to 100%
O=C(Nc1ccc(-c2ncn(-c3ccc(C(F)(F)F)cc3)n2)cc1)c1ccc(F)c(-c2ccccc2F)c1 [F59, 2′,6-Difluoro-N-(4-(1-(4-(trifluoromethyl)phenyl)-1H-1,2,4-triazol-3-yl)phenyl)-[1,1′-biphenyl]-3-carboxamide]	0%	A (80-100)	50 to 100%	50 to 100%
COc1ccccc1-c1cccc(C(=O)Nc2ccc(-c3ncn(-c4ccc(C(F)(F)F)cc4)n3)cc2)c1 [F60, 2′-Methoxy-N-(4-(1-(4-(trifluoromethyl)phenyl)-1H-1,2,4-triazol-3-yl)phenyl)-[1,1′-biphenyl]-3-carboxamide]	0 to 80%	A (80-100)	50 to 100%	50 to 100%
CCOc1ccccc1-c1cccc(C(=O)Nc2ccc(-c3ncn(-c4ccc(OC(F)(F)F)cc4)n3)cc2)c1 [F38, 2′-Ethoxy-N-(4-(1-(4-(trifluoromethoxy)phenyl)-1H-1,2,4-triazol-3-yl)phenyl)-[1,1′-biphenyl]-3-carboxamide]	0 to 80%	A (80-100)	50 to 100%	50 to 100%
Cc1c(C(=O)Nc2ccc(-c3ncn(-c4ccc(OC(F)(F)F)cc4)n3)cc2)cccc1-c1ccccc1 [F14, 2-Methyl-N-(4-(1-(4-(trifluoromethoxy)phenyl)-1H-1,2,4-triazol-3-yl)phenyl)-[1,1′-biphenyl]-3-carboxamide]	0 to 80%	D (No activity noticed in this bioassay)	50 to 100%	50 to 100%
O=C(NCCc1ccc(-c2ncn(-c3ccc(OC(F)(F)F)cc3)n2)cc1)c1ccc(F)c(-c2ccccc2F)c1 [F55, 2′,6-Difluoro-N-(4-(1-(4-(trifluoromethoxy)phenyl)-1H-1,2,4-triazol-3-yl)phenethyl)-[1,1′-biphenyl]-3-carboxamide]	0 to 80%	D (No activity noticed in this bioassay)	50 to 100%	50 to 100%
COc1ccc(C(=O)Nc2ccc(-c3ncn(-c4ccc(OC(F)(F)F)cc4)n3)cc2)cc1-c1ccccc1 [F37, 6-Methoxy-N-(4-(1-(4-(trifluoromethoxy)phenyl)-1H-1,2,4-triazol-3-yl)phenyl)-[1,1′-biphenyl]-3-carboxamide]		A (80-100)	50 to 100%	50 to 100%
CC(=O)c1ccccc1-c1cccc(C(=O)Nc2ccc(-c3ncn(-c4ccc(OC(F)(F)C(F)(F)F)cc4)n3)cc2)c1 [F9, 2′-Acetyl-N-(4-(1-(4-(perfluoroethoxy)phenyl)-1H-1,2,4-triazol-3-yl)phenyl)-[1,1′-biphenyl]-3-carboxamide]		A (80-100)	50 to 100%	50 to 100%
